Molecules are shown by their SMILES.

Sequence of KRAS (aa 1-169) G12C, C51S, C80L, C118S (P01116 other isoform, or with tags, fused parts or gaps G12C/C51S/C80L/C118S): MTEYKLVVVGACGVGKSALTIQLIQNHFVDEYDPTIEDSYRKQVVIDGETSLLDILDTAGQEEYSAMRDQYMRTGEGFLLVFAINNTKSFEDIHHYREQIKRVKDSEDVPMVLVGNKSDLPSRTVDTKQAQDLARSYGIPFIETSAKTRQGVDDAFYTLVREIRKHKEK

The target of the experiment is KRAS (aa 1-169) G12C, C51S, C80L, C118S (Homo sapiens (Human), UniProt P01116, C118S/C51S/C80L/G12C). In words: Biochemical functional assay: SOS1-mediated nucleotide exchange of GDP-loaded KRAS G12C, binding to GST-cRaf RBD, FRET readout. The conditions noted are these: 3 hrs pre-incubation with compound at 24° C., SOS1, GTPyS, inhibition of nucleotide exchange. The method, then:
Biochemical Functional Assay
The KRAS (aa 1-169) G12C, C51S, C80L, C118S with a His-tag was expressed, purified and loaded with GDP in house. All protein and substrate solutions were prepared in assay buffer containing 25 mM HEPES pH7.5, 10 mM MgCl2, and 0.01% Triton X-100. Purified GDP-loaded KRAS (aa 1-169) G12C, C51S, C80L, C118S protein was pre-incubated with a serially diluted compound at 24° C. for 3 hrs. Purified SOS1 (aa 564-1049) protein, GTPyS (Sigma) and GST-cRaf RBD (aa 1-149) were then added to each well and incubated at 24° C. for additional 3 hrs. […] Following the incubation, Mab Anti-6HIS-T cryptate (Cisbio) and Mab Anti GST-XL665 (Cisbio) were added and further incubated at 24° C. for 3 hrs. The binding interaction between active GTPyS KRAS G12C and GST-cRaf RBD brings the Tb and XL665 into close proximity enabling an increased FRET signal (Ex337 nm, Em665 nm/620 nm). The inhibition percentage of nucleotide exchange reaction in presence of increasing concentrations of compounds was calculated based on the ratio of fluorescence at 665 nm to that at 620 nm detected on a BMG PHERAstar FSX instrument. The IC50 value of each compound was calculated from fitting the data to the four-parameter logistic model by Dotmatics.
As a reminder, the IC50 is the point on the concentration scale where inhibition reaches its midpoint. In the case of `C=C(F)C(=O)N1CCN(c2nc(OC[C@@H]3C[C@H]4C[C@H]4N3C)nc3cc(-c4cccc5cccc(Cl)c45)c4c(c23)OCCC4)C[C@@H]1CC#N` [Compound B73, 2-((S)-4-(5-(8-chloronaphthalen-1-yl)-8-(((1R,3S,5R)-2-methyl-2-azabicyclo[3.1.0]hexan-3-yl)methoxy)-3,4-dihydro-2H-pyrano[2,3-f]quinazolin-10-yl)-1-(2-fluoroacryloyl)piperazin-2-yl)acetonitrile], the IC50 was determined as 50 nM.
Turning to `C=C(F)C(=O)N1CCN(c2nc(OC[C@@H]3CCCN3C)nc3cc(-c4cccc5cccc(Cl)c45)c4c(c23)OCCC4)C[C@@H]1CC#N` (single isomer, unassigned) [Compound B67], the IC50 came to 4.6 nM.
As to `C=C(F)C(=O)N1CCN(c2nc(OC3CCCN(C)C3)nc3cc(-c4cccc5cccc(Cl)c45)c4c(c23)OCCC4)C[C@@H]1CC#N` (stereo partly drawn) [Compound B84, 2-((2S)-4-(5-(8-chloronaphthalen-1-yl)-8-((1-methylpiperidin-3-yl)oxy)-3,4-dihydro-2H-pyrano[2,3-f]quinazolin-10-yl)-1-(2-fluoroacryloyl)piperazin-2-yl)acetonitrile], the IC50 is 483 nM.
To `C=CC(=O)N1CCN(c2nc(N3CC(N(C)C)C3)nc3cc(-c4ccccc4C(F)(F)F)c4ccoc4c23)CC1` [Compound B83, 1-(4-(7-(3-(dimethylamino)azetidin-1-yl)-4-(2-(trifluoromethyl)phenyl)furo[2,3-f]quinazolin-9-yl)piperazin-1-yl)prop-2-en-1-one] belongs 1700 nM.
For `C=C(F)C(=O)N1CCN(c2nc(O[C@@H]3CCN(C)C3)nc3cc(-c4cccc5cccc(Cl)c45)c4c(c23)OCCC4)C[C@@H]1CC#N` [Compound B71, 2-((S)-4-(5-(8-chloronaphthalen-1-yl)-8-(((R)-1-methylpyrrolidin-3-yl)oxy)-3,4-dihydro-2H-pyrano[2,3-f]quinazolin-10-yl)-1-(2-fluoroacryloyl)piperazin-2-yl)acetonitrile], the IC50 was 304 nM.
Regarding `C=CC(=O)N1CCN(c2nc(OC3CCCC3N(C)C)nc3cc(-c4cccc5cccc(Cl)c45)c4c(c23)OCCC4)C[C@@H]1CC#N` (stereo partly drawn) [Compound B48, 2-((2S)-1-acryloyl-4-(5-(8-chloronaphthalen-1-yl)-8-((2-(dimethylamino)cyclopentyl)oxy)-3,4-dihydro-2H-pyrano[2,3-f]quinazolin-10-yl)piperazin-2-yl)acetonitrile], the IC50 worked out at 14 nM.
For `C=C(F)C(=O)N1CCN(c2nc(OC[C@@H]3CCCN3C)nc3cc(-c4ccc(Cl)c5ccccc45)c4c(c23)OCCC4)C[C@@H]1CC#N` [Compound B98, 2-((S)-4-(5-(4-chloronaphthalen-1-yl)-8-(((S)-1-methylpyrrolidin-2-yl)methoxy)-3,4-dihydro-2H-pyrano[2,3-f]quinazolin-10-yl)-1-(2-fluoroacryloyl)piperazin-2-yl)acetonitrile], the IC50 stood at 462 nM.
For `C=CC(=O)N1CC2CN(c3ncnc4cc(-c5c(O)cccc5F)c5c(c34)OC(C)(C)CC5)CC2C1` (centres unmarked) [Compound A6, 1-(5-(5-(2-fluoro-6-hydroxyphenyl)-2,2-dimethyl-3,4-dihydro-2H-pyrano[2,3-f]quinazolin-10-yl)hexahydropyrrolo[3,4-c]pyrrol-2(1H)-yl)prop-2-en-1-one] the value was 3540 nM; for `C=C(F)C(=O)N1CCN(c2nc(OCC3C[C@@H](OC)CN3C)nc3cc(-c4cccc5cccc(Cl)c45)c4c(c23)OCCC4)C[C@@H]1CC#N` (single isomer, unassigned) [Compound B97], 508 nM.
With `C=C(F)C(=O)N1CCN(c2nc(O[C@@H]3CN(C)C[C@H]3OC)nc3cc(-c4cccc5cccc(Cl)c45)c4c(c23)OCCC4)C[C@@H]1CC#N` [Compound B55, 2-((S)-4-(5-(8-chloronaphthalen-1-yl)-8-(((3R,4R)-4-methoxy-1-methylpyrrolidin-3-yl)oxy)-3,4-dihydro-2H-pyrano[2,3-f]quinazolin-10-yl)-1-(2-fluoroacryloyl)piperazin-2-yl)acetonitrile], the IC50 was determined as 134 nM.
For the compound `C=CC(=O)N1CC2(CCN(c3nc(OC[C@@H]4CCCN4C)nc4cc(-c5cccc6cccc(Cl)c56)c5ccoc5c34)CC2)C1` [Compound B51, (S)-1-(7-(4-(8-chloronaphthalen-1-yl)-7-((1-methylpyrrolidin-2-yl)methoxy)furo[2,3-f]quinazolin-9-yl)-2,7-diazaspiro[3.5]nonan-2-yl)prop-2-en-1-one], the IC50 turned out to be 1010 nM.
For `C=C(F)C(=O)N1CCN(c2nc(OC[C@@H]3CCCN3C)nc3cc(-c4ccc(C(F)(F)F)cc4)c4ccoc4c23)C[C@@H]1CC#N` [Compound B89, 2-((S)-1-(2-fluoroacryloyl)-4-(7-(((S)-1-methylpyrrolidin-2-yl)methoxy)-4-(4-(trifluoromethyl)phenyl)furo[2,3-f]quinazolin-9-yl)piperazin-2-yl)acetonitrile], the IC50 was 691 nM.
For `C=CC(=O)N1CCN(c2nc(N3CC(N(C)C)C3)nc3cc(-c4c(O)cccc4F)c4c(c23)OCCC4)CC1` [Compound B7, 1-(4-(8-(3-(dimethylamino)azetidin-1-yl)-5-(2-fluoro-6-hydroxyphenyl)-3,4-dihydro-2H-pyrano[2,3-f]quinazolin-10-yl)piperazin-1-yl)prop-2-en-1-one] the value was 1090 nM.
For `C=CC(=O)N1CCN(c2nc(OC[C@@H]3CCCN3C)nc3cc(-c4c(Cl)c(C)cc5[nH]ncc45)c4c(c23)OCCC4)CC1` [Compound B6, 1-(4-(5-(5-chloro-6-methyl-1H-indazol-4-yl)-8-(((S)-1-methylpyrrolidin-2-yl)methoxy)-3,4-dihydro-2H-pyrano[2,3-f]quinazolin-10-yl)piperazin-1-yl)prop-2-en-1-one] the value was 34 nM; for `C=C(F)C(=O)N1CCN(c2nc(OC[C@@H]3CCCN3C)nc3cc(-c4cccc5ccc(Cl)cc45)c4c(c23)OCCC4)C[C@@H]1CC#N` [Compound B70, 2-((S)-4-(5-(7-chloronaphthalen-1-yl)-8-(((S)-1-methylpyrrolidin-2-yl)methoxy)-3,4-dihydro-2H-pyrano[2,3-f]quinazolin-10-yl)-1-(2-fluoroacryloyl)piperazin-2-yl)acetonitrile], 35 nM.
Consider `C=CC(=O)N1CCN(c2nc(N3CC(N(C)C)C3)nc3cc(-c4c(F)cccc4F)c4c(c23)OCCC4)CC1` [Compound B2, 1-(4-(5-(2,6-difluorophenyl)-8-(3-(dimethylamino)azetidin-1-yl)-3,4-dihydro-2H-pyrano[2,3-f]quinazolin-10-yl)piperazin-1-yl)prop-2-en-1-one], for which the IC50 was found to be 2240 nM.
To `C=C(F)C(=O)N1CCN(c2nc(N3CC(N(C)C)C3)nc3cc(-c4cccc5cccc(Cl)c45)c4c(c23)OCCC4)C[C@@H]1CC#N` (single isomer, unassigned) [Compound B102] belongs 354 nM.
In the case of `C=CC(=O)N1CCN(c2ncnc3cc(-c4cc(F)cc5[nH]ncc45)c4c(c23)OCCC4)C[C@@H]1CC#N` [Compound A16, (S)-2-(1-acryloyl-4-(5-(6-fluoro-1H-indazol-4-yl)-3,4-dihydro-2H-pyrano[2,3-f]quinazolin-10-yl)piperazin-2-yl)acetonitrile], the IC50 turned out to be 89.8 nM.
For `C=C(F)C(=O)N1CCN(c2nc(OC[C@]3(C)CCCN3C)nc3cc(-c4cccc5cccc(Cl)c45)c4c(c23)OCCC4)C[C@@H]1CC#N` [Compound B60, 2-((S)-4-(5-(8-chloronaphthalen-1-yl)-8-(((S)-1,2-dimethylpyrrolidin-2-yl)methoxy)-3,4-dihydro-2H-pyrano[2,3-f]quinazolin-10-yl)-1-(2-fluoroacryloyl)piperazin-2-yl)acetonitrile] the value was 252 nM; for `C=CC(=O)N1CCN(c2ncnc3cc(-c4c(F)cccc4F)c4c(c23)OCCC4)C[C@@H]1CC#N` [Compound A34, (S)-2-(1-acryloyl-4-(5-(2,6-difluorophenyl)-3,4-dihydro-2H-pyrano[2,3-f]quinazolin-10-yl)piperazin-2-yl)acetonitrile], 2110 nM; for `C=C(F)C(=O)N1CCN(c2nc(OC[C@@H]3CCCN3C)nc3cc(-c4c(Cl)c(C)cc5[nH]ncc45)c4c(c23)OCC4)C[C@@H]1CC#N` [Compound B30, 2-((2S)-4-(4-(5-chloro-6-methyl-1H-indazol-4-yl)-7-(((S)-1-methylpyrrolidin-2-yl)methoxy)-2,3-dihydrofuro[2,3-f]quinazolin-9-yl)-1-(2-fluoroacryloyl)piperazin-2-yl)acetonitrile], 9.6 nM.
To `C=CC(=O)N1CCN(c2ncnc3cc(-c4cc(C)cc5[nH]ncc45)c4c(c23)OCCC4)C[C@@H]1CC#N` [Compound A11, (S)-2-(1-acryloyl-4-(5-(6-methyl-1H-indazol-4-yl)-3,4-dihydro-2H-pyrano[2,3-f]quinazolin-10-yl)piperazin-2-yl)acetonitrile] belongs 799 nM; to `C=C(F)C(=O)N1CCN(c2nc(OC[C@@H]3C[C@@H](OC)CN3C)nc3cc(-c4cccc5cccc(Cl)c45)c4ccoc4c23)C[C@@H]1CC#N` [Compound B20, 2-((S)-4-(4-(8-chloronaphthalen-1-yl)-7-(((2S,4R)-4-methoxy-1-methylpyrrolidin-2-yl)methoxy)furo[2,3-f]quinazolin-9-yl)-1-(2-fluoroacryloyl)piperazin-2-yl)acetonitrile], 16 nM.

These data come from patent publication US20240166660A1, “KRAS G12C INHIBITORS” (BeiGene Switzerland GmbH, priority 2021, published 2024).
